# Read-outs that look alike come from different tables or passages of the source.
# Key:
# [1] = human, in vivo, 150 mg
# Text: (§1) Data on the performance of the method and stability indicate that the sample results as reported are reliable.
# clinical = conditions: human, in vivo; for AUC0-t higher after the 8-hour MR formulation than after the 4-hour MR formulation / AUC0-t lower after the 8-hour MR formulation than after the 4-hour MR formulation / Tmax: po
# Text: The blood samples were taken via an indwelling intravenous catheter or by direct venipuncture.
# The effect of food on the relative oral bioavailability of IMB-1018972 following a single oral administration was explored. This occurred in the single-dose MR part where subjects received the same dose, first under fasted conditions and then under fed conditions.
# [2] = 28-day dog study (nonclinical toxicology, NOAEL); type: in vivo; conditions: for AUC(0-t): po, 200 mg/kg/day
# Protocol: Based on the nonclinical toxicology data, it was considered that subjects in this clinical study were not at unreasonable risk of adverse effects. […] For a 60-kg individual, the NOAEL dose would be 6480 mg. With a 10-fold safety factor applied, this would allow for a maximum recommended starting dose (MRSD) of 648 mg/day. 7,8 The planned starting dose in the current Phase 1 study was 50 mg, equivalent to 0.83 mg/kg/day for a 60-kg subject. This starting dose is less than 10% of the MRSD determined from the dog NOAEL and less than 1% of the dog NOAEL
# The relevant animal study was the 28-day dog study where the NOAEL for IMB-1018972 was 200 mg/kg/day.
# [3] = Phase 1 first-in-human study, combined single and multiple IMB-1018972 dose results (SAD, MAD, FE, MR), plasma and urine PK; conditions: plasma of subjects that received IMB-1018972
# Text: as §1
# [4] = solution stability (decomposition kinetics) in simulated GI media at 37° C. and 0.2 mg/mL, HPLC; type: physicochemical
# Protocol: The solution stability of CV-8972 was evaluated in multiple media currently used to simulate dissolution and stability conditions in the various sections of the GI tract. As CV-8972 will be subject to hydrolysis as it is dissolving in the GI tract, it will be important to understand these kinetics in terms of designing instant and controlled-release formulations. HPLC methods were used to perform these assessments.
# In summary, there may be some protective effect of the components of the FaSSGF, FaSSIF, and FeSSIF, particularly when compared to stability in 0.1N HCl or bicarbonate or phosphate buffer at pH 6-8. On the positive side, the fastest decomposition rate still has a T1/2 of 1.5 hours which should provide enough residence time for release and absorption in the upper GI tract.
# [5] = Phase 1 first-in-human study, multiple-dose MR part, safety and tolerability; type: in vivo
# Protocol: (§2) AEs were recorded from (first) admission until completion of the follow-up visit. Any clinically significant observations in results of clinical laboratory, 12-lead ECGs, vital signs, or physical examinations were recorded as AEs.
# (§3) A treatment-emergent AE (TEAE) was defined as any event not present prior to (the first) administration of the study drug or any event already present that worsened in either severity or frequency following exposure to the study drug.
# (§4) The severity of the AEs was rated as mild, moderate, or severe; the relationship between the AEs and the study drug was indicated as none, unlikely, possibly, likely, or definitely. Adverse events assessed as possibly, likely, or definitely were considered related to the study drug; AEs assessed as none or unlikely were considered not related to the study drug.
# [6] = Phase 1 first-in-human study, overall safety; type: in vivo; conditions: after administration as the MR formulations
# Protocol: Safety and tolerability were assessed through AEs, clinical laboratory, vital signs, ECGs, continuous cardiac monitoring (telemetry), and physical examination findings, and any other parameter that was relevant for safety assessment.
# [7] = in vitro stability in biological media across species; type: in vitro ADME
# Text: Additional and extensive in vitro stability work has been carried out across species to evaluate the impact of GI tract, liver tissues, and plasma on half-life as measured by in vitro clearance of CV-8972 in various biological media.
# [8] = pH stability profile of a 1 mg/mL solution of CV-8972 at 23° C.; type: physicochemical; conditions: for 1st order Kobs / % lost in 25 hrs / Amt. remaining / T5% / T10%: 1 mg/mL, 23° C.
# Protocol: The pH stability profile is summarized and shown in Table 2 for a 1 mg/mL solution of CV-8972 at 23° C.
# The hydrolysis proceeds via the first step shown in FIG. 1, as Nicotinic acid and CV-8814 are the only decomposition products generated. The optimal pH for solution stability appears to be around pH 5-5.1 for a 1 mg/mL solution with acid-catalyzed hydrolysis increasing at pH values less than 5.0 and base-catalyzed hydrolysis increasing above pH 5.0.
# [9] = Phase 1 first-in-human study, single-dose MR part, safety and tolerability; type: in vivo
# Protocol: The subjects received a single oral dose of 1 of 4 MR formulations of IMB-1018972 under fasted conditions (an overnight fast of at least 10 hours) on Days 1, 4, 7, and 10 in a fixed order that was the same for all subjects. The MR formulation of IMB-1018972 to be administered on Day 13 under fed conditions was 1 of the 4 MR formulations administered on Days 1, 4, 7, and 10 under fasted conditions.
# as §2, §3, §4
# CaCo2 = experiment: in vitro CaCo2 permeability; type: in vitro ADME
# [10] = in vitro CaCo2 permeability; type: in vitro ADME; conditions: human, Caco-2
# [11] = aqueous solubility of CV-8972; type: physicochemical; conditions: aqueous solution, aqueous buffer
# Text: FIG. 2 is graph of the aqueous solubility of CV-8972 as a function of pH generated via dynamic methods due to instability.
structure (smiles),measurement,setting,value
"COc1ccc(CN2CCN(CCO)CC2)c(OC)c1OC [CV-8814, 2-[4-[(2,3,4-trimethoxyphenyl)methyl]piperazin-1-yl]ethanol]",Cmax lower under fed conditions relative to fasted conditions,[1],approximately 36%
same,half-life,clinical,3.35 to 4.27 h
same,Cmax higher under fed conditions relative to fasted conditions,clinical; 200 mg,approximately 42%
same,AUC0-t higher after the 8-hour MR formulation than after the 4-hour MR formulation,clinical,6%
same,AUC0-t lower after the 8-hour MR formulation than after the 4-hour MR formulation,clinical,26%
same,Tmax,clinical; 200 mg,2 h
same,AUC(0-t),"[2]; female, dog, in vivo",653 µg·h/mL
same,AUC(0-t),"[2]; male, dog, in vivo",418 µg·h/mL
"COc1ccc(CN2CCN(CCOC(=O)c3cccnc3)CC2)c(OC)c1OC [CV-8972, 2-[4-[(2,3,4-trimethoxyphenyl)methyl]piperazin-1-yl]ethyl pyridine-3-carboxylate]",IMB-1018972 in plasma samples,[3],could be measured in only few plasma samples
same,Est Kobs (first order rate constant for hydrolysis),"[4]; 0.1 M HCl, pH 1.0, no surfactants",0.221 h⁻¹
same,Est Kobs (first order rate constant for hydrolysis),"[4]; BiCarb adj (0.1 M HCl neutralized with sodium bicarbonate), pH 6-8.2, no surfactants",0.456 h⁻¹
same,Est Kobs (first order rate constant for hydrolysis),"[4]; FaSSGF, pH 1.6",0.0143 h⁻¹
same,Est Kobs (first order rate constant for hydrolysis),"[4]; FaSSIF, pH 6.5",0.05124 h⁻¹
same,Est Kobs (first order rate constant for hydrolysis),"[4]; FeSSIF, pH 5.8",0.00696 h⁻¹
same,half-life at 0.2 mg/mL,"[4]; bicarbonate-adjusted medium (BiCarb adj), BiCarb adj, pH 6-8.2 (fastest decomposition rate)",1.5 h
same,number of TEAEs considered not related to the study drug,[5],30
same,number of TEAEs considered related to the study drug,[5],10
same,"number of TEAEs, SOC Gastrointestinal disorders",[5],9
same,"number of TEAEs, SOC General disorders and administration site conditions",[5],4
same,"number of TEAEs, SOC Musculoskeletal and connective tissue disorders",[5],4
same,"number of TEAEs, SOC Nervous system disorders",[5],9
same,"number of TEAEs, SOC Renal and urinary disorders (pollakiuria)",[5],4
same,number of drug-related TEAEs of pollakiuria,[5],4
same,"number of drug-related TEAEs, Nervous system disorders",[5],2
same,severity of TEAEs,[5],All TEAEs were of mild severity
same,subjects n (%) with drug-related Nervous system disorders,[5],2 (16.7%)
same,subjects n (%) with drug-related pollakiuria,[5],4 (33.3%)
same,"subjects n (%), SOC Gastrointestinal disorders",[5],5 (41.7%)
same,"subjects n (%), SOC General disorders and administration site conditions",[5],4 (33.3%)
same,"subjects n (%), SOC Musculoskeletal and connective tissue disorders",[5],4 (33.3%)
same,"subjects n (%), SOC Nervous system disorders",[5],7 (58.3%)
same,"subjects n (%), SOC Renal and urinary disorders (pollakiuria)",[5],4 (33.3%)
same,total number of TEAEs,[5],40
same,subjects reporting flushing,[5]; mild severity,2 (16.7%)
same,number of TEAEs of flushing,"[5]; mild severity, drug-related",2
same,hemodynamic changes and changes in the QTc-interval,[6],"no findings of hemodynamic changes, nor changes in the QTc-interval"
same,NOAEL at 28 days,"[2]; dog, in vivo",108 mg/kg/day
same,maximum recommended starting dose (MRSD),"[2]; dog, in vivo, 28 days",648 mg/day
same,NOAEL dose for a 60-kg individual,[2]; from HED,6480 mg
same,NOAEL at 28 days,"[2]; in vivo, 28-day dog, oral, read-out: no observed adverse effect level (NOAEL)",200 mg/kg/day
same,"stability in GI tract, liver tissues and plasma (in vitro clearance)",[7],relatively unstable in the GI tract
same,optimal pH for solution stability,[8]; 1 mg/mL solution,5-5.1
same,1st order Kobs,"[8]; pH 2.74, Water",0.00516 h⁻¹
same,% lost in 25 hrs,"[8]; pH 2.74, Water",12.1%
same,Amt. remaining,"[8]; pH 2.74, Water",0.879 mg/mL
same,T5%,"[8]; pH 2.74, Water",9.9 h
same,T10%,"[8]; pH 2.74, Water",20.4 h
same,1st order Kobs,"[8]; pH 3.52, 20 mM Phos",0.00273 h⁻¹
same,% lost in 25 hrs,"[8]; pH 3.52, 20 mM Phos",6.6%
same,Amt. remaining,"[8]; pH 3.52, 20 mM Phos",0.934 mg/mL
same,T5%,"[8]; pH 3.52, 20 mM Phos",18.8 h
same,T10%,"[8]; pH 3.52, 20 mM Phos",38.6 h
same,1st order Kobs,"[8]; pH 5.05, 20 mM Am. Acetate",0.00105 h⁻¹
same,% lost in 25 hrs,"[8]; pH 5.05, 20 mM Am. Acetate",2.6%
same,Amt. remaining,"[8]; pH 5.05, 20 mM Am. Acetate",0.974 mg/mL
same,T5%,"[8]; pH 5.05, 20 mM Am. Acetate",48.7 h
same,T10%,"[8]; pH 5.05, 20 mM Am. Acetate",100.0 h
same,1st order Kobs,"[8]; pH 5.64, 20 mM Phos",0.00248 h⁻¹
same,% lost in 25 hrs,"[8]; pH 5.64, 20 mM Phos",6.0%
same,Amt. remaining,"[8]; pH 5.64, 20 mM Phos",0.94 mg/mL
same,T5%,"[8]; pH 5.64, 20 mM Phos",20.7 h
same,T10%,"[8]; pH 5.64, 20 mM Phos",42.6 h
same,1st order Kobs,"[8]; pH 6.5, 20 mM Phos",0.01119 h⁻¹
same,% lost in 25 hrs,"[8]; pH 6.5, 20 mM Phos",24.4%
same,Amt. remaining,"[8]; pH 6.5, 20 mM Phos",0.756 mg/mL
same,T5%,"[8]; pH 6.5, 20 mM Phos",4.6 h
same,T10%,"[8]; pH 6.5, 20 mM Phos",9.4 h
same,1st order Kobs,"[8]; pH 6.88, 20 mM Phos",0.02064 h⁻¹
same,% lost in 25 hrs,"[8]; pH 6.88, 20 mM Phos",40.3%
same,Amt. remaining,"[8]; pH 6.88, 20 mM Phos",0.597 mg/mL
same,T5%,"[8]; pH 6.88, 20 mM Phos",2.5 h
same,T10%,"[8]; pH 6.88, 20 mM Phos",5.1 h
same,TEAEs of flushing,[9],No TEAEs of flushing were reported
same,difference between fasted and fed administration for the number and incidence of TEAEs,[9],no clear difference
same,dose or dissolution time dependency of the number and incidence of TEAEs,[9],no apparent dose or dissolution time dependency
same,number of TEAEs considered not related to the study drug,[9],30
same,number of TEAEs considered related to the study drug,[9],7
same,"number of TEAEs, SOC Gastrointestinal disorders",[9],5
same,"number of TEAEs, SOC General disorders and administration site conditions",[9],11
same,"number of TEAEs, SOC Nervous system disorders",[9],8
same,number of drug-related TEAEs of ALT increased,[9],1
same,number of drug-related TEAEs of headache,[9],1
same,number of drug-related TEAEs of pollakiuria,[9],5
same,severe TEAEs,[9],No severe TEAEs were reported
same,subjects n (%) with drug-related pollakiuria,[9],2 (16.7%)
same,"subjects n (%), SOC Gastrointestinal disorders",[9],4 (33.3%)
same,"subjects n (%), SOC General disorders and administration site conditions",[9],7 (58.3%)
same,"subjects n (%), SOC Nervous system disorders",[9],7 (58.3%)
same,total number of TEAEs,[9]; all treatments,37
same,efflux,CaCo2,little evidence of efflux
same,Papp,[10],~29 ×10⁻⁶ cm/s
same,solubility,"[11]; free base, read-out: saturated base solubility / minimal solubility as the free base",5000 to 10000 µg/mL
same,solubility,"[11]; salt, read-out: solubility as the salt",> 100000 µg/mL
"COc1ccc(CN2CCNCC2)c(OC)c1OC [trimetazidine, reference compound]",half-life,clinical,8.11 to 9.35 h
same,AUC0-t higher after the 8-hour MR formulation than after the 4-hour MR formulation,clinical,4%
same,AUC0-t lower after the 8-hour MR formulation than after the 4-hour MR formulation,clinical,12%
same,Tmax,clinical; 50 mg,8 h
same,Tmax,clinical; 200 mg,5 h
same,AUC(0-t),"[2]; female, dog, in vivo",13.8 µg·h/mL
same,AUC(0-t),"[2]; male, dog, in vivo",15 µg·h/mL
